# Experiments:
# [1] = target: Ephrin type-B receptor 2 (Homo sapiens) (UniProt P29323); conditions: Compound concentration 1000.0 nM
# [2] = tested on: Tyrosine-protein kinase ABL1 (Homo sapiens), P00519 [Q252H]; conditions: Compound concentration 1000.0 nM
# [3] = target: Serine/threonine-protein kinase DCLK3 (Homo sapiens) (UniProt Q9C098); conditions: Compound concentration 1000.0 nM
# [4] = target: Focal adhesion kinase 1 (Homo sapiens) (UniProt Q05397); conditions: Compound concentration 1000.0 nM
# [5] = target: Inhibitor of nuclear factor kappa-B kinase subunit beta (Homo sapiens) (UniProt O14920); conditions: Compound concentration 1000.0 nM
# [6] = target: Tyrosine-protein kinase receptor Tie-1 (Homo sapiens) (UniProt P35590); conditions: Compound concentration 1000.0 nM
# [7] = target: Prostaglandin G/H synthase 2 (Homo sapiens) (UniProt P35354); experiment: Cyclooxygenase 2 (human) CEREP ligand profiling; conditions: Compound concentration 10.0 uM
# [8] = target: Tyrosine-protein kinase FRK (Homo sapiens) (UniProt P42685); conditions: Compound concentration 1000.0 nM
# [9] = target: Cyclin-dependent kinase 13 (Homo sapiens) (UniProt Q14004); conditions: Compound concentration 1000.0 nM
# [10] = target: Fibroblast growth factor receptor 4 (Homo sapiens) (UniProt P22455); conditions: Compound concentration 1000.0 nM
# [11] = target: Mast/stem cell growth factor receptor Kit (Homo sapiens) (UniProt P10721); conditions: Compound concentration 1000.0 nM
# [12] = target: SRSF protein kinase 1 (Homo sapiens) (UniProt Q96SB4); conditions: Compound concentration 1000.0 nM
# Chain of SRSF protein kinase 1 (Homo sapiens) (Q96SB4 whole entry): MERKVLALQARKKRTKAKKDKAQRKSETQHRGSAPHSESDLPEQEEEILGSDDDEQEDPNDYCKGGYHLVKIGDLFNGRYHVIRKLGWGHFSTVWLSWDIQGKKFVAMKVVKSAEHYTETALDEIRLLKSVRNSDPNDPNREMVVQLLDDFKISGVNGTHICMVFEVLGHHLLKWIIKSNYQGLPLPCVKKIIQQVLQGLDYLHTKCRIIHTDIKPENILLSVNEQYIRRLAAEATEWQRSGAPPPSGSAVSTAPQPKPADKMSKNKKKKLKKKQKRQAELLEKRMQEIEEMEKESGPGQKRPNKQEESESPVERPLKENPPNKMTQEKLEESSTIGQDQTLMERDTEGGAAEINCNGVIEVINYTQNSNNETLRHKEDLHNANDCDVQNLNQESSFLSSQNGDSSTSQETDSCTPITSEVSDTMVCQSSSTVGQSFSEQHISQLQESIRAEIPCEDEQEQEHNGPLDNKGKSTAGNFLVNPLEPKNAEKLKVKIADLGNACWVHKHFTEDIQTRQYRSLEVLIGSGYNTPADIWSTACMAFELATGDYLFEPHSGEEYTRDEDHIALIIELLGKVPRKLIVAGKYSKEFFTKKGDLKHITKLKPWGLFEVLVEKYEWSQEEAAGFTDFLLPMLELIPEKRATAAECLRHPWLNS
# [13] = target: Serine/threonine-protein kinase WNK3 (Homo sapiens) (UniProt Q9BYP7); conditions: Compound concentration 1000.0 nM
# [14] = target: Rho-associated protein kinase 2 (Homo sapiens) (UniProt O75116); conditions: Compound concentration 1000.0 nM
# [15] = target: Mitogen-activated protein kinase kinase kinase 14 (Homo sapiens) (UniProt Q99558); conditions: Compound concentration 1000.0 nM
# [16] = target: Mitogen-activated protein kinase 3 (Homo sapiens) (UniProt P27361); conditions: Compound concentration 1000.0 nM
# [17] = target: Serine/threonine-protein kinase Sgk3 (Homo sapiens) (UniProt Q96BR1); conditions: Compound concentration 1000.0 nM
# [18] = target: Ribosomal protein S6 kinase alpha-4 (Homo sapiens) (UniProt O75676); conditions: Compound concentration 1000.0 nM
# Chain of Ribosomal protein S6 kinase alpha-4 (Homo sapiens) (O75676 whole entry, looked up, canonical isoform): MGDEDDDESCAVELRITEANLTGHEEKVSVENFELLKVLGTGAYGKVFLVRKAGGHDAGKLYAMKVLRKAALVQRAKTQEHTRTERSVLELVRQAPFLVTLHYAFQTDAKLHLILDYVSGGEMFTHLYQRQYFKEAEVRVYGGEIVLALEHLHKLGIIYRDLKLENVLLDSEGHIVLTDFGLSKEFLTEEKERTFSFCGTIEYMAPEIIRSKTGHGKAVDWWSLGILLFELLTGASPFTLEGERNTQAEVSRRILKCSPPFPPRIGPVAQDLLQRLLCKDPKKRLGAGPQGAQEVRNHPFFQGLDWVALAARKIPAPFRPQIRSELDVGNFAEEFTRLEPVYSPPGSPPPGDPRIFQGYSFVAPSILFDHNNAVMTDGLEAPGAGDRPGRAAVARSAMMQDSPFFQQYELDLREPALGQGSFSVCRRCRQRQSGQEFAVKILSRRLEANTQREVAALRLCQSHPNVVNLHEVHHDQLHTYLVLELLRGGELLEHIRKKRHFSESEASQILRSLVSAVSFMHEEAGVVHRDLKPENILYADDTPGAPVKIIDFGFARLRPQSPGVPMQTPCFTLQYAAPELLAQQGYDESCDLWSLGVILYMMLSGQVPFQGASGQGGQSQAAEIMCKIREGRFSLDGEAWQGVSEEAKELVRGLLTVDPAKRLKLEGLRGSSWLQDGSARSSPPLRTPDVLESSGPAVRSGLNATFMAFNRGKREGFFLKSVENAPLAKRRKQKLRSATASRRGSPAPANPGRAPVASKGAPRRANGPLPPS
# [19] = target: Phosphatidylinositol 4,5-bisphosphate 3-kinase catalytic subunit alpha isoform (Homo sapiens) (UniProt P42336); conditions: Compound concentration 1000.0 nM
# [20] = target: Serine/threonine-protein kinase N2 (Homo sapiens) (UniProt Q16513); conditions: Compound concentration 1000.0 nM
# [21] = target: Dual specificity protein kinase CLK4 (Homo sapiens) (UniProt Q9HAZ1); conditions: Compound concentration 1000.0 nM
# [22] = target: Proto-oncogene tyrosine-protein kinase Src (Homo sapiens) (UniProt P12931); conditions: Compound concentration 1000.0 nM
# [23] = target: Myotonin-protein kinase (Homo sapiens) (UniProt Q09013); conditions: Compound concentration 1000.0 nM
# [24] = target: Mitogen-activated protein kinase 14 (Homo sapiens) (UniProt Q16539); conditions: Compound concentration 1000.0 nM
# [25] = target: Mitogen-activated protein kinase kinase kinase 2 (Homo sapiens) (UniProt Q9Y2U5); conditions: Compound concentration 1000.0 nM
# [26] = target: Transient receptor potential cation channel subfamily M member 6 (Homo sapiens) (UniProt Q9BX84); conditions: Compound concentration 1000.0 nM
# [27] = target: cGMP-dependent protein kinase 1 (Homo sapiens) (UniProt Q13976); conditions: Compound concentration 1000.0 nM
# Chain of cGMP-dependent protein kinase 1 (Homo sapiens) (Q13976 whole entry): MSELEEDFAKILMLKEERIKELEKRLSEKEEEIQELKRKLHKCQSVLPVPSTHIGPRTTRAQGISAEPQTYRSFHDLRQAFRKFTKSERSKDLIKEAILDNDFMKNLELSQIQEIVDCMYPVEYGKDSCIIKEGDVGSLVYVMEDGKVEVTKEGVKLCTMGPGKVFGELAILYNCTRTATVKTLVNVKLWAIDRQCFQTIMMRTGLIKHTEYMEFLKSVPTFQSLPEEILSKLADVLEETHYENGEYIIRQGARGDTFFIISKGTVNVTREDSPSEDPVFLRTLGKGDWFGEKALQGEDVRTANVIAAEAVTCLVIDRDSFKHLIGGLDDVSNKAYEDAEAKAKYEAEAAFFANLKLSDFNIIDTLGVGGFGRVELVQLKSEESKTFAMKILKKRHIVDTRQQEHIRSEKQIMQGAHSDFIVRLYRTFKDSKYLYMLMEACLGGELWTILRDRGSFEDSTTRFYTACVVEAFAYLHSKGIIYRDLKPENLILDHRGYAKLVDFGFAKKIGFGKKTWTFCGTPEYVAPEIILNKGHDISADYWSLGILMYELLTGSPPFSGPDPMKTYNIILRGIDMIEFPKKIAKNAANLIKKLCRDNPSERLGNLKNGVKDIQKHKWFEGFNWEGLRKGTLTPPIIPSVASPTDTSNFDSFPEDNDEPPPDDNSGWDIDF
# [28] = target: Mitogen-activated protein kinase kinase kinase 19 (Homo sapiens) (UniProt Q56UN5); conditions: Compound concentration 1000.0 nM
# [29] = tested on: Tyrosine-protein kinase ABL1 (Homo sapiens), P00519 [M351T]; conditions: Compound concentration 1000.0 nM
# [30] = target: SRSF protein kinase 2 (Homo sapiens) (UniProt P78362); conditions: Compound concentration 1000.0 nM
# [31] = target: 5-hydroxytryptamine receptor 2A (Homo sapiens) (UniProt P28223); conditions: Compound concentration 10.0 uM
# Chain of 5-hydroxytryptamine receptor 2A (Homo sapiens) (P28223 whole entry): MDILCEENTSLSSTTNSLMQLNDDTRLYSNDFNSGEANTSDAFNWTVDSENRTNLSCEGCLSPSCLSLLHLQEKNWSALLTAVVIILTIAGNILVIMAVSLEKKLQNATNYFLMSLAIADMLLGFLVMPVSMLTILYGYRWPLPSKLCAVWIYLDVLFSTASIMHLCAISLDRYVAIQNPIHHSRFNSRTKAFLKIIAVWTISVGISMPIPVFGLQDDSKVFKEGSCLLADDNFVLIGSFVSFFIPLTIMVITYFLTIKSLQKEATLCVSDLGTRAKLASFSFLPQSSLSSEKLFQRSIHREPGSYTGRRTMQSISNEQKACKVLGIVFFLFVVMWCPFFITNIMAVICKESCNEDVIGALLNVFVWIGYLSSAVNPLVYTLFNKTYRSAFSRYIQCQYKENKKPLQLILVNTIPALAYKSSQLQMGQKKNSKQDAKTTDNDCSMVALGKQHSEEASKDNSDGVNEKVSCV
# [32] = target: Serine/threonine-protein kinase tousled-like 1 (Homo sapiens) (UniProt Q9UKI8); conditions: Compound concentration 1000.0 nM
# [33] = tested on: Mast/stem cell growth factor receptor Kit (Homo sapiens), P10721 [A829P]; conditions: Compound concentration 1000.0 nM
# [34] = target: Microtubule-associated serine/threonine-protein kinase 1 (Homo sapiens) (UniProt Q9Y2H9); conditions: Compound concentration 1000.0 nM
# Chain of Microtubule-associated serine/threonine-protein kinase 1 (Homo sapiens) (Q9Y2H9 whole entry, looked up): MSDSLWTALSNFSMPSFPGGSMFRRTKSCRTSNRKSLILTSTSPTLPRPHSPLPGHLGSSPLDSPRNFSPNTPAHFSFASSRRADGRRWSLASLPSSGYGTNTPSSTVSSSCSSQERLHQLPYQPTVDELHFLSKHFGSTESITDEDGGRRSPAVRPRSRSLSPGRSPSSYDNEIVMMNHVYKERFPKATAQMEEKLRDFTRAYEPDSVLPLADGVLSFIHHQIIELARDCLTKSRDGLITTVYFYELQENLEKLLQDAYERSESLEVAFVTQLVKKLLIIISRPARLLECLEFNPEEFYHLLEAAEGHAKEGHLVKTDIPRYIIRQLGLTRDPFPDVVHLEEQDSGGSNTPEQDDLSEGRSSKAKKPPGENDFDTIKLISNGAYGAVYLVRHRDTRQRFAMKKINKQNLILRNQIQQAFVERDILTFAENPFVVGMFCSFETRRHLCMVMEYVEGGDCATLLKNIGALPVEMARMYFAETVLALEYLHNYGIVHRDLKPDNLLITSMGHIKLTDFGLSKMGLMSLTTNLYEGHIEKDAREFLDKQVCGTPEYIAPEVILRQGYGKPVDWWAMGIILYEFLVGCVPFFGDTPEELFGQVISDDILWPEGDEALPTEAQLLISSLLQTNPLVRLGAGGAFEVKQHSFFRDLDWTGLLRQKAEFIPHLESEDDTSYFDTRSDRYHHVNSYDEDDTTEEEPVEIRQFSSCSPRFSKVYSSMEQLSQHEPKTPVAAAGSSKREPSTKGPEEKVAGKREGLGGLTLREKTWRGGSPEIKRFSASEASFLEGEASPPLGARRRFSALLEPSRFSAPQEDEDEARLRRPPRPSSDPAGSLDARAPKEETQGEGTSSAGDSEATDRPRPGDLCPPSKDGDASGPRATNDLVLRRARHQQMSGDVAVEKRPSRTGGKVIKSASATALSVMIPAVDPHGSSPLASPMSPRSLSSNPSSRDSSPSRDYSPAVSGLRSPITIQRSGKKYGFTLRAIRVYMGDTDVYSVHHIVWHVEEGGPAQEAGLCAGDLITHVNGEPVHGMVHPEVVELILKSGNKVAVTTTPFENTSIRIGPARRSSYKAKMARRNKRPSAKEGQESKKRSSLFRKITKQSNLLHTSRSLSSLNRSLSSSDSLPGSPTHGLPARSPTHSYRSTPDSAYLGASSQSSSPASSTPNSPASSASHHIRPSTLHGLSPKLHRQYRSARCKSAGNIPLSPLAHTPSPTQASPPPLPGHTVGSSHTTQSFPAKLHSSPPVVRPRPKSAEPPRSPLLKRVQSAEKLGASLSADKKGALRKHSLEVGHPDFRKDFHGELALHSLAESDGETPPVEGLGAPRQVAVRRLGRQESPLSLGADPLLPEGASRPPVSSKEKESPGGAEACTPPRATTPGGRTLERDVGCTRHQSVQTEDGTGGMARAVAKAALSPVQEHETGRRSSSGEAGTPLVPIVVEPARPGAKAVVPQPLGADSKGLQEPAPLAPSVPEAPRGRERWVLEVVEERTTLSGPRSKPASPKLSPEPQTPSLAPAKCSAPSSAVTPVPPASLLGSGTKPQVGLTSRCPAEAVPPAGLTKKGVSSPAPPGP
# Chain of Serine/threonine-protein kinase DCLK3 (Homo sapiens) (Q9C098 whole entry): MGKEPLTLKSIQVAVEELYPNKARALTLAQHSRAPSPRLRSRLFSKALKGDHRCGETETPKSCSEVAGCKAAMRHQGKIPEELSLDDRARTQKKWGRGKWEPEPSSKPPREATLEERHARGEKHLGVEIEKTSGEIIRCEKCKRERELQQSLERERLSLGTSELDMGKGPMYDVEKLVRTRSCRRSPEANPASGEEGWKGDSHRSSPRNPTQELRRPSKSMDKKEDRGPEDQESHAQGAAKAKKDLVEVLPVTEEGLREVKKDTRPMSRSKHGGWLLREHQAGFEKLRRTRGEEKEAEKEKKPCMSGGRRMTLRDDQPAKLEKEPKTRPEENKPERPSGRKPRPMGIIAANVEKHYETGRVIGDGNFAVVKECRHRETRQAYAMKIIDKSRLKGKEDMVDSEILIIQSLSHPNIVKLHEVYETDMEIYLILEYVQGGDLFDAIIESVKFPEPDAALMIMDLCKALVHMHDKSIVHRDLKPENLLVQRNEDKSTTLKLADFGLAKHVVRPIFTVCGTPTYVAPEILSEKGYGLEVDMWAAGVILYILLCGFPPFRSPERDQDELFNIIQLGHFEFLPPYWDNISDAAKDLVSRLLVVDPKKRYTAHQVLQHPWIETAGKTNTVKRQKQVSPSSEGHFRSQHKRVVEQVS
structure (smiles),measurement,setting,value
C[C@H](c1ccc(F)cc1)N(Cc1cccc(C(=O)O)c1)C(=O)c1cnc2ccccc2c1 [PF-05105679],residual activity,[1],96%
same,residual activity,[2],89%
same,residual activity,[3],100%
same,residual activity,[4],93%
same,residual activity,[5],100%
same,residual activity,[6],93%
same,inhibition,[7],21%
same,residual activity,[8],77%
same,residual activity,[9],98%
same,residual activity,[10],91%
same,residual activity,[11],100%
same,residual activity,[12],95%
same,residual activity,[13],87%
same,residual activity,[14],100%
same,residual activity,[15],100%
same,residual activity,[16],100%
same,residual activity,[17],100%
same,residual activity,[18],85%
same,residual activity,[19],100%
same,residual activity,[20],86%
same,residual activity,[21],66%
same,residual activity,[22],100%
same,residual activity,[23],88%
same,residual activity,[24],0%
same,residual activity,[25],100%
same,residual activity,[26],100%
same,residual activity,[27],100%
same,residual activity,[28],72%
same,residual activity,[29],94%
same,residual activity,[30],98%
same,inhibition,[31],-0.2%
same,residual activity,[32],97%
same,residual activity,[33],92%
same,residual activity,[34],100%

# Source: ChEMBL document CHEMBL4507296 (2021)
